Assay results reported in patent US8209131B2, “Therapeutic heparins and their binding to interleukins 4 and 5 and PECAM-1” (Curtin University of Technology, priority 2004, dated 2012).
Read-outs that look alike come from different tables or passages of the source.

Assays:
[1] = BIAcore binding of proteins to heparin immobilised on a biosensor chip; conditions: for binding to immobilized heparin: recombinant proteins, FIG. 2
Text: This technology uses the optical phenomenon of surface plasmon resonance to monitor physical interactions between molecules. Passing the protein solution over a sensor surface to which the ligand is coupled monitors the real-time binding of proteins to an immobilized ligand. Detection is achieved by measuring refractive index changes very close to the sensor surface. When the refractive index is altered, the angle at which plasmon resonance occurs changes and this change directly correlates with the amount of protein interacting with the surface. A BIAcore 2000 is conveniently used. It is very sensitive and its microfluidics ensures that only small amounts of material are required.
The HLGAGs are immobilized on the biosensor chip. Intact HLGAGs are biotinylated via amino groups, or reducing termini modified with ammonia by reductive amination, using sulfo-NHS-biotin. Biotinylated HLGAGs are immobilized on streptavidin-coupled sensor chips. Solutions containing proteins of interest are injected over the sensor chip surface, and the binding is measured in real time (Fernig, In: Proteoglycan protocols, Ed. R.V. Iozzo, Humana Press, Totowa, N.J., USA, 2001). […] In all cases binding is specific, as there is little or no interaction with sensor chips lacking heparin with any of the targeted proteins, and binding is inhibited by exogenous heparin. Initial analyzes indicate that the binding of rhIL-5 to heparin has affinity constants of the order from 50-5×10^−9. Because unsubstituted amines are variably present in heparan sulfates from different tissues, an alternative method of biotin labeling is recommended for the heparan sulfate chip. In this case, heparan sulfate is labeled via oxidized cis-diol residues using biotinyl-LC-hydrazine. […]
Binding experiments with these proteins has indicated to which PECAM-1 domains heparin binds. Two binding assays were used: the assay where PECAM-1 is reacted with a BIAcore biosensor chip to which heparin has been immobilised and the second assay is the binding of PECAM-1 to heparan sulfate on the cell surface.
Site directed mutagenesis was performed on IL-4. Basic residues within the proposed heparin binding site were changed to alanine and the proteins expressed using the baculovirus expression system. The one exception was R88 which was changed to valine. Insect cell expressed proteins were purified on an anti-IL-4 affinity column and checked for purity by SDS-PAGE and silver staining. Mutant IL-4 proteins were examined for their ability to bind heparin immobilised on a biosensor chip and binding assessed using a BIAcore 2000.

[2] = tested on: TF1.8 cells; assay: TF1.8 bioassay of IL-4 mutants (support of proliferation); type: cell-based, human; conditions: IL-4 wt and mutants, TF1.8 cells
Experimental: TF-1.8 cells have been transfected with the firefly luciferase gene contained in the expression vector, pPGK-puromycin-luciferase (Coombe et al., 1998, Supra). The positive transfectants are cloned to produce a line with good luciferase expression. The proliferation assays are carried out in 96-well microplates suitable for such assays Falcon). The wells are flat bottomed, with white sides and a clear bottom. Cells are washed to remove any cytokine in the growth medium and then resuspended in RPMI/5% w/v FCS. The cells are counted with a Coulter Multisizer (Coulter Electronics, England) and routinely 2.5×10^4 cells are added to microplate wells that contain either no IL-4 (negative control) or various dilutions of IL-4. When the effect of HLGAGs, chondroitin sulfate C, or the heparin fractions of a particular length, or heparin fragments of a particular length and structure is to be measured, the wells also contain various concentrations of these molecules.
The cells proliferate for 48 hours at 37° C. in a humidified atmosphere, after which the luciferase activity is measured by the addition of 50 μl of luciferase substrate buffer (50 mm Tris-HCl, pH 7.8, 15 mM MgSO4, 33.3 mM DTT, 0.1 mM EDTA, 0.5 mM Na-luciferin, 0.5 mM ATP, 0.25 mM lithium Co A and 0.5% v/v Triton X-100). […] Light emissions are detected on a Victor 1420 Multilabel counter (Wallac, Turku, Finland). […]

| Substance | binding to immobilized heparin [1] | Kd ([1]; FIG. 24, several IL-4 concentrations, read-out: estimated KD of wild-type IL-4 binding to heparin) [nM] | ka ([1]; IL-4 WT and mutants binding to heparin, in M-1s-1 (unit assumed)) | kd ([1]; IL-4 WT and mutants binding to heparin, in s-1 (unit assumed)) | Kd ([1]; IL-4 WT and mutants binding to heparin, read-out: KD) [nM] | Conc needed for 50% growth, average [2] [ng/mL] | binding of PECAM-1 constructs to immobilised heparin [1] |
| --- | --- | --- | --- | --- | --- | --- | --- |
| CypA: E. coli expressed Cyclophilin A | readily bind to heparin |  |  |  |  |  |  |
| WT: recombinant human wild-type IL-4 | readily bind to heparin | 5 to 10 | 5.68E+04 | 2.88E−03 | 52.7 | 0.99 |  |
| flag-PECAM-1: extracellular domain of PECAM-1 fused to the flag affinity tag, Cos-7 expressed | readily bind to heparin |  |  |  |  |  | can bind to the heparin chip |
| rhIL-5: baculovirus expressed human IL-5 | readily bind to heparin |  |  |  |  |  |  |
